Literature values in patent publication US20040058943A1, “Medicinal composition for treatment of chronic cardiac failure” (priority 2001, published 2004).
Read-outs that look alike come from different tables or passages of the source.

What was measured:
[1] = tested on: model rats of heart failure after myocardial infarction; details: for effect on mortality: 9-months long-term oral administration
[2] = tested on: model rats of heart failure; details: 10-week oral administration

SMILES | effect on mortality ([1]; dose 30 mg/kg·day) | effect on mortality ([1]; dose 100 mg/kg·day) | ameliorating the left ventricular end-diastolic pressure (LVEDP) ([1]; long-term oral administration) | maximum value of the first order differentiation of the left ventricular systolic pressure (LVdP/dtmax) ([1]; long-term oral administration) | ameliorating the left ventricular end-diastolic pressure (LVEDP) [2] | cardiac hypertrophy [2] | maximum value of the first order differentiation of the left ventricular systolic pressure (LVdP/dtmax) [2]
COc1ccccc1Oc1c(NS(=O)(=O)c2ccc(C(C)(C)C)cc2)nc(-c2ncccn2)nc1OCCO [bosentan] | ineffective | significantly reduces the mortality | effective | ineffective | – | – | –
COc1cc(OC)nc(O[C@H](C(=O)O)C(OC)(c2ccccc2)c2ccccc2)n1 [darusentan] | – | – | – | – | effective | ineffective | ineffective
